Tests used:
HL-60 cells = test: HL-60 cell viability by propidium iodide uptake (flow cytometry)
Experimental: HL-60 cells were maintained in stationary culture in RPMI 1640 medium (Gibco, Grand Island, NY) containing 10% fetal bovine serum at 37° C in an atmosphere of 95 air and 5% CO2. The cells (about 8×10^5 /ml) were differentiated into neutrophil-like cells by treatment with 1.3% DMSO for six days (Harris, et al., J. Leukocyte Biol. 37: 407-422 (1985)). […] […] In studies of the protective effect of mevalonic acid, the compound was added as the mevalonolactone (Sigma Chemical Co., St. Louis, MO) at a concentration of 1 mM to the cell culture on days 4 to 6. Similarly, cholesterol was added in the form of LDL prepared according to the method of Curtiss and Edgington (Curtiss, et al., J. Biol. Chem. 257: 15213-15221 (1991)) at a final concentration of 50 μg/ml; ubiquinone (Sigma Chemical Co., St. Louis, MO) was added as Coenzyme Q-10 at a final concentration of 0.5 mM; and dolichol (Sigma Chemical Co., St. Louis, MO) was added as a dispersion in phosphatidylcholine at a final concentration of 0.5 mM (Cutts, et al., J. Cell Physiol. 139: 550-555 (1989)).
Cell viability was determined by uptake of propidium iodide (537-059; Calbiochem-Behring Corp., La Jolla, CA), detected from the emission fluorescence at 625/35 nm using a DM560 dichronic mirror (Krishan, J. Cell. Biol. 66: 188-192 (1975)). Expression of N-formyl peptide receptor was determined using fluorescein-labeled N-CHONle-Leu-Phe-Nle-Tyr-Lys (Molecular Probes, Inc., Eugene, OR) essentially by the method of Sklar and Finney (Sklar and Finney, Cytometry 3: 161-165 (1982)). Specificity of ligand binding was determined in the presence of 4 mM unlabeled T-boc peptide. CD14 expression was determined using monoclonal antibody 3C10 at a dilution of 1:1,000 (see Goyert and Ferrero, in Leucocyte Typing III: White Cell Differentiation Antigens, McMichael, ed., Oxford Univ. Press, NY, pp. 613-619 (1988)), with detection using a fluorescein-labeled secondary antibody. Flow cytometric analyses were performed on a FACSIV (registered trademark of Becton-Dickinson, San Jose, CA) equipped with a 2W argon laser (Coherent Inc., Palo Alto, collected in list mode and analyzed using the Consort 30 program (Becton-Dickinson, San Jose, CA) after collecting 10,000 events.

[1] = tested on: NADPH oxidase in HL-60 cells; test: Inhibition of NADPH oxidase activation / O2- generation in HL-60 cells (stimulus not singled out); format: cell-based
Experimental: HL-60 cells were maintained in stationary culture in RPMI 1640 medium (Gibco, Grand Island, NY) containing 10% fetal bovine serum at 37° C in an atmosphere of 95 air and 5% CO2. The cells (about 8×10^5 /ml) were differentiated into neutrophil-like cells by treatment with 1.3% DMSO for six days (Harris, et al., J. Leukocyte Biol. 37: 407-422 (1985)). The cells were treated with the indicated levels of compactin or lovastatin by addition of a 1,000-fold concentrated stock solution to the appropriate concentration on day 4 of differentiation. […] In studies of the protective effect of mevalonic acid, the compound was added as the mevalonolactone (Sigma Chemical Co., St. Louis, MO) at a concentration of 1 mM to the cell culture on days 4 to 6. Similarly, cholesterol was added in the form of LDL prepared according to the method of Curtiss and Edgington (Curtiss, et al., J. Biol. Chem. 257: 15213-15221 (1991)) at a final concentration of 50 μg/ml; ubiquinone (Sigma Chemical Co., St. Louis, MO) was added as Coenzyme Q-10 at a final concentration of 0.5 mM; and dolichol (Sigma Chemical Co., St. Louis, MO) was added as a dispersion in phosphatidylcholine at a final concentration of 0.5 mM (Cutts, et al., J. Cell Physiol. 139: 550-555 (1989)). O2 --formation by HL-60 cells was assessed by the SOD-sensitive reduction of cytochrome c. Cells were suspended at 1×10^7 /ml in Krebs-Ringer Hepes buffer with 5.5 mM glucose (KRHG) and 50-100μl of cells were added to a cuvette containing 100 μM cytochrome c (type III, Sigma Chemical Co., St. Louis, MO), ±300 μg/ml SOD (Sigma Chemical Co., St. Louis, MO) in 700-750 μl KRHG. Cytochalasin b (Sigma Chemical Co., St. Louis, MO) was added to a final concentration of 5 μg/ml, and the cells were incubated at 37° C. for five minutes while a stable baseline at a wavelength of 550 nm was obtained. O2 --formation was initiated by the addition of 1 μM N-formylmethionylleucylphenylalanine (FMLP; Sigma Chemical Co., St. Louis, MO) or 1μg/ml phorbol myristate acetate (PMA; Sigma Chemical Co., St. Louis, MO). Cytochrome c reduction at 550nm was continuously monitored and maximal rate and extent of the reaction calculated.

[2] = tested on: HL-60 cells (NADPH oxidase / respiratory burst); test: Prevention of compactin-inhibition of FMLP-stimulated O2- formation in HL-60 cells by mevalonic acid and other supplements; format: cell-based; conditions: for block in NADPH oxidase activity / cellular responsiveness after supplementation: compactin-treated HL-60 cells, exogenous supplement
Experimental: HL-60 cells were maintained in stationary culture in RPMI 1640 medium (Gibco, Grand Island, NY) containing 10% fetal bovine serum at 37° C in an atmosphere of 95 air and 5% CO2. The cells (about 8×10^5 /ml) were differentiated into neutrophil-like cells by treatment with 1.3% DMSO for six days (Harris, et al., J. Leukocyte Biol. 37: 407-422 (1985)). The cells were treated with the indicated levels of compactin or lovastatin by addition of a 1,000-fold concentrated stock solution to the appropriate concentration on day 4 of differentiation. […] In studies of the protective effect of mevalonic acid, the compound was added as the mevalonolactone (Sigma Chemical Co., St. Louis, MO) at a concentration of 1 mM to the cell culture on days 4 to 6. Similarly, cholesterol was added in the form of LDL prepared according to the method of Curtiss and Edgington (Curtiss, et al., J. Biol. Chem. 257: 15213-15221 (1991)) at a final concentration of 50 μg/ml; ubiquinone (Sigma Chemical Co., St. Louis, MO) was added as Coenzyme Q-10 at a final concentration of 0.5 mM; and dolichol (Sigma Chemical Co., St. Louis, MO) was added as a dispersion in phosphatidylcholine at a final concentration of 0.5 mM (Cutts, et al., J. Cell Physiol. 139: 550-555 (1989)).
O2 --formation by HL-60 cells was assessed by the SOD-sensitive reduction of cytochrome c. Cells were suspended at 1×10^7 /ml in Krebs-Ringer Hepes buffer with 5.5 mM glucose (KRHG) and 50-100μl of cells were added to a cuvette containing 100 μM cytochrome c (type III, Sigma Chemical Co., St. Louis, MO), ±300 μg/ml SOD (Sigma Chemical Co., St. Louis, MO) in 700-750 μl KRHG. Cytochalasin b (Sigma Chemical Co., St. Louis, MO) was added to a final concentration of 5 μg/ml, and the cells were incubated at 37° C. for five minutes while a stable baseline at a wavelength of 550 nm was obtained. O2 --formation was initiated by the addition of 1 μM N-formylmethionylleucylphenylalanine (FMLP; Sigma Chemical Co., St. Louis, MO) or 1μg/ml phorbol myristate acetate (PMA; Sigma Chemical Co., St. Louis, MO). Cytochrome c reduction at 550nm was continuously monitored and maximal rate and extent of the reaction calculated.
Inhibition of protein isoprenylation can interfere with LMWG function without inhibiting overall cellular function (Maltese, supra (1990)). Since compactin inhibits at the enzymatic step preceding mevalonic acid synthesis, one should be able to reverse effects of compactin due specifically to inhibition of this pathway by addition of exogenous mevalonic acid.

Molecule: CC[C@H](C)C(=O)O[C@H]1C[C@@H](C)C=C2C=C[C@H](C)[C@H](CC[C@@H]3C[C@@H](O)CC(=O)O3)[C@H]21 [lovastatin]
- cell viability when inhibitor added at day 1 of differentiation (HL-60 cells): somewhat decreased
- inhibition of NADPH oxidase activation, effective concentrations [1]: micromolar concentrations
- ability of HL-60 cells to generate O2- ([1]; response to receptor stimuli and downstream activators): markedly inhibited

Molecule: dolichol
- effect on compactin blockade of oxidase activity ([2]; 0.5 mM dolichol): no effect
- block in NADPH oxidase activity / cellular responsiveness after supplementation [2]: apparently not overcome

Molecule: C[C@@](O)(CCO)CC(=O)O [mevalonic acid]
- FMLP-stimulated O2- formation, Extent ([2]; 1 mM mevalonate, no compactin): 111 ± 8.0 % of control
- FMLP-stimulated O2- formation, Rate ([2]; 1 mM mevalonate, no compactin): 120 ± 10 % of control
- reversal of compactin inhibition of O2- formation ([2]; 1 mM mevalonic acid (as mevalonolactone), 4 or 10 μM compactin): nearly completely reversed
- block in NADPH oxidase activity / cellular responsiveness after supplementation [2]: totally restored
- effect on control rate or extent of O2- formation ([2]; no compactin): no consistent effect

Molecule: COC1=C(OC)C(=O)C(C/C=C(\C)CC/C=C(\C)CC/C=C(\C)CC/C=C(\C)CC/C=C(\C)CC/C=C(\C)CC/C=C(\C)CC/C=C(\C)CC/C=C(\C)CCC=C(C)C)=C(C)C1=O [ubiquinone]
- effect on compactin blockade of oxidase activity ([2]; 0.5 mM ubiquinone): no effect
- block in NADPH oxidase activity / cellular responsiveness after supplementation [2]: apparently not overcome

Molecule: CC(C)CCC[C@@H](C)[C@H]1CC[C@H]2[C@@H]3CC=C4C[C@@H](O)CC[C@]4(C)[C@H]3CC[C@]12C [cholesterol]
- effect on compactin blockade of oxidase activity ([2]; 50 μg/ml LDL cholesterol): no effect
- FMLP-stimulated O2- formation, Extent ([2]; 50 μg/ml cholesterol, no compactin, n = 2): 99 % of control
- FMLP-stimulated O2- formation, Rate ([2]; 50 μg/μl cholesterol, no compactin, n = 2): 90 % of control
- block in NADPH oxidase activity / cellular responsiveness after supplementation [2]: apparently not overcome

— patent publication US5244916A, “Inhibition of respiratory burst using posttranslational modification inhibitors” (The Scripps Research Institute, priority 1992, dated 1993)
